This note sets out measurements from patent US20210379210A1, “RADIOLIGANDS FOR IMAGING THE LPA1 RECEPTOR” (BRISTOL-MYERS SQUIBB COMPANY, priority 2018, published 2021).

Series [1] is described as follows: In-vivo PET imaging, lung uptake in wild type and bleomycin treated rats. Particulars: Sprague Dawley, rat, lung, intravenous. Further details: species or system rat. On the procedure:
(§1) [^18F]-(1S,3S)-3-(((6-(5-((((4-(fluoro)butyl)(methyl)carbamoyl)oxy)methyl)-1-methyl-1H-1,2,3-triazol-4-yl)-2-methylpyridin-3-yl)oxy)cyclohexane-1-carboxylic acid was tested to confirm its properties, specificity and targeting of the LPA1 receptor in aged-matched wild type (Sprague Dawley rat, Charles River Laboratory, PA) and bleomycin-induced pulmonary fibrosis rat models. The bleomycin-induced pulmonary fibrosis rat model was generated in anesthetized rats that were administered bleomycin (2 μL/g) via oropharyngeal instillation. For oropharyngeal instillation, anesthetized rats (isoflurane, 4% in 100% 02) were placed on a slanted board/tilting workstation and bleomycin was dripped onto the vocal cords, facilitating aspiration. Rats were then returned to their cages until they fully recovered from anesthesia and were monitored daily for the duration of the experiment. In this experiment, the [^18F]-labeled LPA1 antagonist, produced as described in the above Examples, was tested for its ability to discriminate between normal lung in wild type rats and increased lung LPA1 expression in the bleomycin rat disease model. The bleomycin treated rats were used at 14 and 15 days post bleomycin treatment. PET images were acquired at 14 days (baseline) and 15 days (blocking with a 10 mg/kg oral dose of an LPA1 antagonist administered 30 minutes before PET scan). Two groups of rats were used in the PET imaging study—aged matched wild type rats (Group 1, n=4) and bleomycin treated rats (Group 2, n=4). All animals received a baseline PET imaging scan and a repeat PET imaging scan following a single 10 mg/kg oral dose of an LPA1 antagonist. For PET image acquisition, rats were placed in an anesthetic induction chamber and 3% isoflurane inhalant anesthesia was delivered in 100% O2 at a rate of 1-1.5 L/min. Once sedated, the rats were removed from the induction chamber and placed into a plexiglass 2-chamber holder (custom-made by BMS-Applied Biotechnology group) within the gantry of the PET system (microPET® F220™, Siemens Preclinical Solutions, Knoxville, Tenn.) where they remained for the duration of the study. Anesthesia was maintained with 1-1.5% isoflurane inhalant anesthesia delivered in 100% 02 at a rate of 2 L/min via the nose-cone. Animals were kept warm using an external standalone temperature regulating unit (M2M Imaging Corp) to prevent hypothermia during imaging. Rat respiration was continuously monitored during imaging procedures and isoflurane was adjusted dependent on depth of anesthesia. A 10-minute transmission image was first acquired using a ^57Co point source for the purpose of attenuation correction of the final PET images and confirmation of lung localization for region of interest (ROI) analysis. The scanning region was located beginning at the neck area and extending toward the hind limbs of each animal in order to place the lungs within the 7.6 cm microPET system axial field of view (FOV). Upon completion of the transmission scan, each rat received administration of between 19.5-29.7 MBq (542-803 μCi) of [^18F]-(1S,3S)-3-(((6-(5-((((4-(fluoro)butyl)(methyl) carbamoyl)oxy)methyl)-1-methyl-1H-1,2,3-triazol-4-yl)-2-methylpyridin-3-yl)oxy)cyclohexane-1-carboxylic acid tracer via tail vein catheter followed by a 2 hour dynamic PET emission scan. For blocking studies, the same protocol was flowed 30 minutes after a 10 mg/kg oral dose of an LPA1 antagonist. Images were reconstructed using a maximum a posteriori (MAP) algorithm with attenuation correction using the collected transmission images and corrected for radioisotope decay. The PET images were then co-registered with corresponding transmission images using anatomical landmarks (air in lung) and boundaries of the animal holder. Images were analyzed by Inveon Research Workstation (Siemens Medical Solutions USA Inc., PA). Analysis for each rat was done with regions of interest (ROIs) drawn onto each whole lung and a section of the liver using the co-registered transmission images. […]

In a further series the target is LPA1 (Rattus norvegicus, UniProt P61794). Described as above. Particulars: for Lung uptake (% ID/g) @ 60-90 min: baseline PET scan, listed as [^18F]-(1S,3S)-3-(6-(5-((((4-(fluoro)butyl)(methyl)carbamoyl)oxy)methyl)-1-meth)). On the procedure:
as §1

“And” between values parts separate entries of the source, which are not always exact repeats. Identical values can stand only once. Like-named read-outs stand apart in the source and are kept apart here.

Sequence of LPA1 (P61794 whole entry): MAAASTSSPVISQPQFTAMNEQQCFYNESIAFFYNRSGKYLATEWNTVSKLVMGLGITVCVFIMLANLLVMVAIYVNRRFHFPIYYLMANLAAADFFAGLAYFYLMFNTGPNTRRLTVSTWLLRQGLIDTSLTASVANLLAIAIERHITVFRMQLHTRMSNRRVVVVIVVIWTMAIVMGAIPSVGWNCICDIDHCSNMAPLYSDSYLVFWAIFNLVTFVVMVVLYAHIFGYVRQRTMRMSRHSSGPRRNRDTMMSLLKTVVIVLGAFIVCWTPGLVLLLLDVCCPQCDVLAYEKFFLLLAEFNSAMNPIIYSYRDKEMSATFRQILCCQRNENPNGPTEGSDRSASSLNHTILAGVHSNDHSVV

With `Cc1nc(-c2nnn(C)c2COC(=O)N(C)CCCC[18F])ccc1O[C@H]1CCC[C@H](C(=O)O)C1` [Example 16], the tissue uptake in series [1] (bleomycin treated rats (Group 2, n=4), baseline, 60-90 minutes post injection, read-out: mean and standard error of radiotracer uptake in lung tissue) came to 0.116 %ID/g; in series [1] (individual bleomycin treated rats (Group 2), baseline PET scan, 14 days post bleomycin, read-out: Lung uptake (% ID/g) @ 60-90 min), 0.116 %ID/g; in series [1] (individual wild type rats (Group 1), baseline PET scan, read-out: Lung uptake (% ID/g) @ 60-90 min), 0.085 %ID/g; in series [1] (wild type rats (Group 1, n=4), baseline, 60-90 minutes post injection, read-out: mean and standard error of radiotracer uptake in lung tissue), 0.08 %ID/g. Besides, the “increase in the lung radioligand signal in disease induced model vs wild type animals” value on LPA1 (bleomycin treated vs wild type rats, baseline, p<0.05) is recorded as 46%. The “Lung uptake (% ID/g) @ 60-90 min” value at LPA1 (individual bleomycin treated rats (Group 2), 14 days post bleomycin) is 0.142 % ID/g and 0.118 % ID/g and 0.088 % ID/g; on LPA1 (individual wild type rats (Group 1)) it was 0.075 % ID/g and 0.063 % ID/g and 0.095 % ID/g.
